Tests used:
human P2X2/3 receptor = target: T1, human P2X2/3 receptor (Homo sapiens, UniProt P56373+Q9UBL9); experiment: P2X2/3 FLIPR (Fluorometric Imaging Plate Reader) assay; type: cell-based; conditions: CHO-K1 cells transfected with human P2X2/3; agonist α,β-meATP 5 μM; Fluo-3 calcium fluorescence
T1 construct: expressed in transfected cells; host or cells: CHO-K1
T1 sequence (Q9UBL9 1-471): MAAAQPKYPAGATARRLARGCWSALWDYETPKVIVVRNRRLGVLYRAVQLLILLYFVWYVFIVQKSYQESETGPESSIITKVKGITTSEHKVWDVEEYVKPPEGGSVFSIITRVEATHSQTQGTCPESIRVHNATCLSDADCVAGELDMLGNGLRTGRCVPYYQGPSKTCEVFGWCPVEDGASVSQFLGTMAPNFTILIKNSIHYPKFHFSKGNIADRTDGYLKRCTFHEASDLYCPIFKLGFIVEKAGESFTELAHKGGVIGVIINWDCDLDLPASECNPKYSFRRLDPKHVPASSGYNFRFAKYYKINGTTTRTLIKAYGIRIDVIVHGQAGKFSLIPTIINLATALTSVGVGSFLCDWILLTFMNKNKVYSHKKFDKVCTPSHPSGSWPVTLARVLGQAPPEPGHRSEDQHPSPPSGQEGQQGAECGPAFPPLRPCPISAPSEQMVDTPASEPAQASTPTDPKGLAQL
T1 sequence (P56373 1-397): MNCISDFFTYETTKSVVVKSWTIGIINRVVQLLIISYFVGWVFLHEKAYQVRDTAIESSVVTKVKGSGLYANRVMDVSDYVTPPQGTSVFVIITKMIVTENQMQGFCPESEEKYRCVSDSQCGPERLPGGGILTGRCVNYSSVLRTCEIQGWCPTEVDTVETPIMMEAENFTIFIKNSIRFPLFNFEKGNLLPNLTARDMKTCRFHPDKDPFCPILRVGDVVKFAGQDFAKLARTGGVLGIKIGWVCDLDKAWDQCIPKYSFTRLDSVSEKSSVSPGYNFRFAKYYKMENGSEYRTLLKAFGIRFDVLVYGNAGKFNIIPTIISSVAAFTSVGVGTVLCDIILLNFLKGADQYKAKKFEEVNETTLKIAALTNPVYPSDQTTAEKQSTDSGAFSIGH
Experimental: (§1) CHO-Kl cells were transfected with cloned rat P2X3 or human P2X2/3 receptor subunits and passaged in flasks. 18-24 hours before the FLIPR experiment, cells were released from their flasks, centrifuged, and resuspended in nutrient medium at 2.5×10^5 cells/ml. The cells were aliquoted into black-walled 96-well plates at a density of 50,000 cells/well and incubated overnight in 5% CO2 at 37° C. On the day of the experiment, cells were washed in FLIPR buffer (calcium- and magnesium-free Hank's balanced salt solution, 10 mM HEPES, 2 mM CaCl2, 2.5 mM probenecid; FB). Each well received 100 μl FB and 100 μl of the fluorescent dye Fluo-3 AM [2 μM final conc.]. […]
(§2) Test compounds (dissolved in DMSO at 10 mM and serially diluted with FB) or vehicle were added to each well (25 μl of a 4× solution) and allowed to equilibrate for 20 minutes at room temperature. The plates were then placed in the FLIPR and a baseline fluorescence measurement (excitation at 488 nm and emission at 510-570 nm) was obtained for 10 seconds before a 100 μl/well agonist or vehicle addition. […] Fluorescence was measured for an additional 2 minutes at 1 second intervals after agonist addition. A final addition of ionomycin (5 μM, final concentration) was made to each well of the FLIPR test plate to establish cell viability and maximum fluorescence of dye-bound cytosolic calcium. […]

rat P2X3 receptor = target: T2, rat P2X3 receptor (Rattus norvegicus, UniProt P49654); experiment: P2X3 FLIPR (Fluorometric Imaging Plate Reader) assay; type: cell-based; conditions: CHO-K1 cells transfected with cloned rat P2X3; agonist α,β-meATP 1 μM; Fluo-3 calcium fluorescence
T2 construct: expressed in transfected cells; host or cells: CHO-K1
T2 sequence (P49654 1-397): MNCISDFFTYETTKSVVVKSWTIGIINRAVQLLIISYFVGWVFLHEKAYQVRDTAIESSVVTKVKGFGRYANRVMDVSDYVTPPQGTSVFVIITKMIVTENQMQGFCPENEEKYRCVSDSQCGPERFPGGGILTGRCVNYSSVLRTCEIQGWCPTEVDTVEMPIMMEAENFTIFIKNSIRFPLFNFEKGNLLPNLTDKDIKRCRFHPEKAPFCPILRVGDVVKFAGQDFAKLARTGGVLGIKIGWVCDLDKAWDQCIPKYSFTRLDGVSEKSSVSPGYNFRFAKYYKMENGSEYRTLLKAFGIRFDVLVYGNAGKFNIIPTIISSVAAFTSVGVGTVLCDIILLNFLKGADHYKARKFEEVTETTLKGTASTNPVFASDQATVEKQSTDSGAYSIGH
Experimental: as §1, §2

| SMILES | pKi for the P2X2/3 receptor (human P2X2/3 receptor) | pIC50 for the P2X3 receptor (rat P2X3 receptor) |
| --- | --- | --- |
| Cc1ccc(-c2cc(C(=O)N[C@H](C)CN3CCOCC3)cc(-c3scnc3C)c2)cc1 [Compound 43, (R)-4′-Methyl-5-(4-methyl-thiazol-5-yl)-biphenyl-3-carboxylic acid (1-methyl-2-morpholin-4-yl-ethyl)-amide] | approximately 7.30 |  |
| Cc1ccc(-c2cc(C(=O)N[C@@H](C)CO)cc(-c3scnc3C)c2)cc1 [Compound 45, (S)-4′-Methyl-5-(4-methyl-thiazol-5-yl)-biphenyl-3-carboxylic acid (2-hydroxy-1-methyl-ethyl)-amide] |  | approximately 8.24 |

— patent publication US9849136B2, “Thiazole and oxazole-substituted arylamides as P2X3 and P2X2/3 antagonists” (Roche Palo Alto LLC, priority 2006, dated 2017)
